The subject of assay [1] is insulin signaling. The assay is described as follows: EGFR inhibitor study: insulin signaling (ERK and Akt/PKB activation) in control MCF-7 cells. The assay is classed as cell-based, human. The note with it: inhibitor 5 minutes prior to 10 nM insulin, FIG. 5. The method, then: (§1) Control MCF-7 cells were serum-starved overnight and treated with the EGFR kinase inhibitor AG1478 (Sigma) or vehicle (DMSO) for 5 minutes prior to the addition of 14 nM EGF or 10 nM insulin (Sigma). After growth factor treatment, cell lysates were prepared and analyzed for ERK and Akt/PKB activation as described above. The 24-hour treatment was done in regular growth medium.

Assay [2] relates to insulin receptor. The assay is described as follows: EGFR inhibitor study: insulin receptor level in MCF-7 cells. The class given is cell-based, human. The note with it: 24-hour treatment in regular growth medium, FIG. 6. How it is done: as §1
The test system of assay [3] is MAPK kinase (MEK). The note with it: Harmon et al., 2004; cited from earlier work.
Assay [4] addresses T1, insulin receptor (IR) (Homo sapiens, UniProt P06213). As to the kind of experiment: IR expression and activation, Western immunoblot in MCF-7 cells. The class given is cell-based. More on the design: whole-cell lysates were prepared at the indicated times and processed directly for Western immunoblots with anti-insulin receptor (IR); endogenous in cells; host or cells: MCF-7 (control and Herstatin-expressing clones). How it is done: (§2) Western blot analysis, and antibodies. For Western blot analyses, whole-cell lysates or immunoprecipitated proteins were resolved by SDS-PAGE and transferred onto nitrocellulose membranes (BioRad, Hercules, Calif.). Blots were blocked in 5% milk and incubated with primary antibody overnight at 4° C. The antibodies included anti-insulin receptor (IR; against the β subunit), anti-IGF-IR, anti-IRS-1, anti-IRS-2, anti-phosphotyrosine, anti-phospho-Akt, anti-Akt, anti-phospho-ERK, anti-ERK, and anti-Shc antibodies (Santa Cruz Biotechnology, Transduction Laboratories, Cell Signaling Technologies, Upstate Laboratories, or Biosource). After washing, the blots were incubated with secondary antibody conjugated to HRP for 30 min (BioRad, Hercules, Calif.). The membranes were developed with SuperSignal™ West Dura (Pierce, Rockford, Ill.) and exposed to x-ray film.
Methods. Cell lines, expression vectors, protein purification, pull down assays, antibodies, Western blot analysis and ELISA assays were as described under EXAMPLE I, herein above. Insulin was added either to MCF-7 breast carcinoma cells, or to an MCF-7 cell line stably transfected with a Herstatin expression vector, to determine whether Herstatin expression affects IR expression, and/or insulin-stimulated IR signal transduction.
Results. […] Control and Herstatin-expressing MCF-7 cells were grown in complete medium prior to an overnight incubation in serum-free medium. Insulin was then added to the control and Herstatin-expressing cells and whole-cell lysates were prepared at the indicated times and processed directly for Western immunoblots with anti-insulin receptor (IR), phospho-Akt, Akt, phospho-ERK, and ERK antibodies, or first immunoprecipitated with anti-IR antibody and immunoprecipitates (IP) then analyzed by Western immunoblotting with anti-phosphotyrosine and anti-IR antibodies after transfer to nitrocellulose membranes. Following incubation of blots with primary antibodies, immunoreactive proteins were detected by enhanced chemiluminescence after a secondary incubation with HRP-conjugated secondary antisera. […]
For orientation: Immunoblotting shows a protein as a band on a membrane.

Assay [5] deals with T1, insulin receptor (IR). As to the kind of experiment: Herstatin cell binding ELISA on IRA-3T3 cells. More on the design: expressed in transfected cells; host or cells: NIH-3T3 (IRA-3T3). The note with it: 3T3 cells transfected with human IR cDNA (IRA-3T3), purified Herstatin from S2 insect cells, 2 hrs on ice. How it is done: (§3) ELISA. Monolayer cultures of ˜2×10^6 cells were plated in 6-well tissue culture plates, and were incubated with purified Herstatin for 2 hours at 4° C. in serum-free DMEM. Cells were washed with Phosphate Buffered Saline (PBS) and extracted in 50 mM Tris·HCl, pH 7.0, 1.0% NP-40. Herstatin bound to cells were quantified using a sandwich Herstatin ELISA per manufacturer's instructions (Upstate Biotechnology, Lake Placid, N.Y.).
(§4) The dissociation constant (KD) and maximal binding (Bmax) of Herstatin were determined by nonlinear regression analysis of the plot of pmol of bound versus nM of Herstatin added. Statistical comparisons between different binding curves were performed by extra sums-of-squares F-test nonlinear regression coefficients. All tests were performed (α=0.05) using GraphPad™ Prism 4™ software (GraphPad™ Software, 1994-2003).
(§5) Results. The interaction between Herstatin and IR was investigated. […] Increasing concentrations of Herstatin, expressed and purified from stably-transfected S2 insect cells, were added to 3T3 parental cells (filled triangles; “NIH-3T3”) or 3T3 cells transfected with a human IR cDNA (filled squares; “IRA-3T3”) as previously described (Shamieh et al., FEBS Letters, 568:163-166, 2004). After incubation for 2 hrs on ice, the cells were washed twice with PBS, and the bound Herstatin was quantified using a Herstatin ELISA (Upstate). […]
(ELISA stands for enzyme-linked immunosorbent assay.)

Assay [6] concerns the target T2, IGF-IR (Homo sapiens, UniProt P08069).
T2 construct: Lysates from control and Herstatin-expressing MCF-7 cells were prepared from respective untreated (no insulin) cells; endogenous in cells; host or cells: MCF-7 (control and Herstatin-expressing clones)
The assay is described as follows: IGF-IR expression, Western immunoblot in MCF-7 cells. The assay is classed as cell-based. The note with it: Herstatin-expressing MCF-7 cells vs control. The method, then: as §2
(§6) Results. […] Lysates from control and Herstatin-expressing MCF-7 cells were prepared from respective untreated (no insulin) cells following overnight incubation in serum-free media, and processed directly or (in the case of the IR) also immunoprecipitated prior to Western immunoblot analysis as described in relation to FIG. 2.

Assay [7] relates to IRS-1, IRS-2, Shc, ERK1 and ERK2. As to the kind of experiment: Expression/phosphorylation state of insulin signaling proteins (IRS-1, IRS-2, Shc, ERK) in MCF-7 cells. The assay is classed as cell-based, human. Conditions: Herstatin-expressing MCF-7 cells vs control, no insulin. The method, then:
as §2, §6

In assay [8] the test system is 3T3 parental cells. As to the kind of experiment: Herstatin cell binding ELISA on parental cells. The note with it: NIH-3T3 parental cells, 2 hrs on ice. The method, then: as §3, §4, §5
For assay [9], the system named is P13K/Akt pathway. As to the kind of experiment: Insulin-stimulated Akt activation in MCF-7 cells. The assay is classed as cell-based, human. The note with it: Herstatin-expressing MCF-7 cells vs control. How it is done: as §2, with “After washing, the blots were incubated with secondary antibody conjugated to HRP for 30 min (BioRad, Hercules, Calif.). The membranes were developed with SuperSignal™ West Dura (Pierce, Rockford, Ill.) and exposed to x-ray film.” left out
Results. […] Insulin was then added to the control and Herstatin-expressing cells and whole-cell lysates were prepared at the indicated times and processed directly for Western immunoblots with anti-insulin receptor (IR), phospho-Akt, Akt, phospho-ERK, and ERK antibodies, or first immunoprecipitated with anti-IR antibody and immunoprecipitates (IP) then analyzed by Western immunoblotting with anti-phosphotyrosine and anti-IR antibodies after transfer to nitrocellulose membranes. Following incubation of blots with primary antibodies, immunoreactive proteins were detected by enhanced chemiluminescence after a secondary incubation with HRP-conjugated secondary antisera. […]

[10] abbreviates: Herstatin-expressing MCF-7 cells vs control MCF-7.

`COc1cc2ncnc(Nc3cccc(Cl)c3)c2cc1OC` [AS1478]: the “effect on insulin signaling” value in assay [1] is “did not affect insulin signaling”. The “increase in insulin receptor (IR)” value in assay [2] is given as “does not Affect Insulin Signaling or Lead to an Increase in IR”.
Turning to `COc1cccc(-c2cc(=O)c3ccccc3o2)c1N` [PD-98059], the “inhibition of insulin-stimulated glucose uptake” value in [3] is recorded as “significant inhibition”.
On to `N#CC(=C(/N)Sc1ccccc1N)/C(C#N)=C(/N)Sc1ccccc1N` [U-0216], for which the “inhibition of insulin-stimulated glucose uptake” value in [3] is reported as “significant inhibition”.
“Herstatin: secreted product of an HER-2 alternative transcript; cell surface receptor isoform (intron fusion protein), polypeptides of SEQ ID NO:2”: in assay [4] (setting [10]), the “accumulation of pro-IR” value is on record as “induce the accumulation of pro-IR” and the “up-regulation of basal IR expression” value is given as “several-fold”. Moreover, the “IR activation by insulin” value in assay [4] (Herstatin-expressing MCF-7 cells, insulin added after overnight serum-free, anti-phosphotyrosine blot of IR IP) is given as “up-regulated IR activation”. For the same molecule, the “Herstatin binding to cells expressing IR” value in assay [5] is reported as “binds at nM concentrations”. In addition, the “decrease in IGF-IR expression” value in assay [6] is on record as about 4 fold. In addition, in [7], the IRS-2 levels entry is “slight decrease”, the “apparent serine phosphorylation of IRS-2” value is “decrease”, the “apparent serine phosphorylation state of IRS-1” value is listed as “decrease” and the “relative expression of Shc isoforms” value is recorded as “alters the relative expression of Shc isoforms”. In addition, in assay [7], the “relative expression ratio of ERK1 and ERK2” value was “increases the relative expression ratio of ERK1 and ERK2”. Besides, the “Herstatin binding to 3T3 parental cells” value in [8] is on record as “but not to 3T3 parental cells”. In [9], the “effect on insulin-stimulated activation of the P13K/Akt pathway” value was “little effect”.
